{"source": "patent US20160022699A1", "about": "“COMBINATIONS AND METHODS FOR TREATING NON AGE-RELATED HEARING IMPAIRMENT IN A SUBJECT” (Washington University, priority 2012, published 2016)", "key": {"[1]": {"system": "noise-induced hearing loss (NIHL) in C57BL/6J mice", "assay": "NIHL treatment protocol: drug i.p. 24 hours after white noise (110 dB SPL, 30 min), ABR threshold shifts", "settings": "for ED50: Mus musculus, ip, 24 h, read-out: median effective dose (ED50) to treat noise-induced hearing loss; for drug effect on ABR threshold shift (two-way ANOVA), treatment / gender effect on ABR threshold shift (two-way ANOVA), treatment: 24 hours after noise"}, "[2]": {"system": "noise-induced hearing loss (NIHL) in C57BL/6J mice", "assay": "NIHL prevention protocol: drug i.p. two hours before white noise (110 dB SPL, 30 min), ABR thresholds / threshold shifts two weeks after noise", "settings": "for ED50: Mus musculus, ip, 2 h, read-out: median effective dose (ED50) to prevent noise-induced hearing loss; for drug effect on ABR threshold shift (two-way ANOVA), prevention: all dosages"}, "NIHL in mice [3]": {"system": "NIHL in mice", "settings": "cited from earlier work; for prophylactic and therapeutic effects against NIHL: drinking water, three weeks before noise"}, "NIHL in mice [4]": {"system": "NIHL in mice", "settings": "intraperitoneal injections; cited from earlier work"}, "cultured auditory cells": {"system": "cultured auditory cells", "settings": "cited from earlier work"}}, "note": "Entries after “also recorded” stand apart in the source; their conditions may differ.", "data": [{"smiles": "C[C@@H]1C[C@H]2[C@@H]3CCC4=CC(=O)C=C[C@]4(C)[C@@]3(F)[C@@H](O)C[C@]2(C)[C@@]1(O)C(=O)CO", "note": "[dexamethasone]", "values": [{"measurement": "ED50", "setting": "[1]", "value": 96.3, "unit": "mg/kg"}, {"measurement": "ED50", "setting": "[2]", "value": 39.4, "unit": "mg/kg"}]}, {"smiles": "CCC1(C)CC(=O)NC1=O", "note": "(stereo not drawn) [ethosuximide]", "values": [{"measurement": "prophylactic and therapeutic effects against NIHL", "setting": "NIHL in mice [3]", "value": "both prophylactic and therapeutic effects"}, {"measurement": "drug effect on ABR threshold shift (two-way ANOVA), treatment", "setting": "[1]", "value": "statistically significant drug effects"}, {"measurement": "gender effect on ABR threshold shift (two-way ANOVA), treatment", "setting": "[1]", "value": "the gender effect was also significant; also recorded: gender difference was also observed"}, {"measurement": "ED50", "setting": "[1]", "value": 243, "unit": "mg/kg"}, {"measurement": "effect on NIHL (Tukey/Kramer post-hoc)", "setting": "[2]; 60 mg/kg, two hours before noise", "value": "significantly enhanced NIHL"}, {"measurement": "effect on NIHL (Tukey/Kramer post-hoc)", "setting": "[2]; 90 mg/kg, two hours before noise", "value": "significantly protected against NIHL"}, {"measurement": "effect on NIHL (Tukey/Kramer post-hoc)", "setting": "[2]; 130 to 260 mg/kg, two hours before noise", "value": "reduced to no significance"}, {"measurement": "median effective dose (ED50) to prevent noise-induced hearing loss", "setting": "[2]; i.p. two hours before noise, calculated with CompuSyn (Chou-Talalay)", "value": "no ED50; also recorded: could not be obtained"}, {"measurement": "gender effect on ABR threshold shift (two-way ANOVA), prevention", "setting": "[2]; two hours before noise", "value": "showed no gender differences"}, {"measurement": "drug effect on ABR threshold shift (two-way ANOVA), prevention", "setting": "[2]; two hours before noise", "value": "statistically significant main effect of drug concentrations"}]}, {"smiles": "Fc1ccc(C(c2ccc(F)cc2)N2CCN(C/C=C/c3ccccc3)CC2)cc1", "note": "[flunarizine]", "values": [{"measurement": "NIHL prophylactic function", "setting": "NIHL in mice [4]", "value": "no NIHL prophylactic functions"}, {"measurement": "cisplatin-induced cell death", "setting": "cultured auditory cells", "value": "inhibit cisplatin-induced death of cultured auditory cells"}]}, {"smiles": "C[C@H]1C[C@@H]2[C@H]([C@@H](O)C[C@@]3(C)[C@H]2CC[C@]3(O)C(=O)CO)[C@@]2(C)C=CC(=O)C=C12", "note": "[methylprednisolone]", "values": [{"measurement": "ED50", "setting": "[1]", "value": 95.6, "unit": "mg/kg"}, {"measurement": "ED50", "setting": "[2]", "value": 525, "unit": "mg/kg"}]}, {"smiles": "COCC(=O)O[C@]1(CCN(C)CCCc2nc3ccccc3[nH]2)CCc2cc(F)ccc2[C@@H]1C(C)C", "note": "[mibefradil]", "values": [{"measurement": "NIHL prophylactic function", "setting": "NIHL in mice [4]", "value": "no NIHL prophylactic functions"}]}, {"smiles": "CN1C(=O)OC(C)(C)C1=O", "note": "[trimethadione]", "values": [{"measurement": "prophylactic and therapeutic effects against NIHL", "setting": "NIHL in mice [3]", "value": "both prophylactic and therapeutic effects"}, {"measurement": "gender dependence of therapeutic effect against NIHL", "setting": "NIHL in mice [3]; mouse, in vivo", "value": "observed only in male mice"}, {"measurement": "outer hair cell (OHC) protection", "setting": "NIHL in mice [3]; mouse, in vivo", "value": "OHC protection was observed"}]}, {"smiles": "NS(=O)(=O)Cc1noc2ccccc12", "note": "[zonisamide]", "values": [{"measurement": "drug effect on ABR threshold shift (two-way ANOVA), treatment", "setting": "[1]", "value": "no statistically significant drug effects"}, {"measurement": "gender effect on ABR threshold shift (two-way ANOVA), treatment", "setting": "[1]", "value": "the gender had no effects as well"}, {"measurement": "ED50", "setting": "[1]", "value": 2540, "unit": "mg/kg"}, {"measurement": "ED50", "setting": "[2]", "value": 125, "unit": "mg/kg"}, {"measurement": "dosage dependence of NIHL prevention", "setting": "[2]; two hours before noise", "value": "clear dosage-dependent prevention of NIHL"}, {"measurement": "gender effect on ABR threshold shift (two-way ANOVA), prevention", "setting": "[2]; two hours before noise", "value": "the gender had no effects; also recorded: showed no gender differences"}, {"measurement": "drug effect on ABR threshold shift (two-way ANOVA), prevention", "setting": "[2]; two hours before noise", "value": "statistically significant drug effects"}]}]}
